Patent publication US20070009544A1, “Anti-allergic complex molecules” (priority 1999, published 2007)
Values after ≈ are worked out from the molar mass of the structure shown. “Also recorded” adds a separate entry of the source. Read-outs that look alike come from different tables or passages of the source. Numbered stars: 1 amine (or outer) side, 2 acyl side, 3 side chain; on linkers, the order of the positions; unused ones are H or OH. Bridge positions count the residues as written; N and C are the ends. Square brackets hold non-standard residues; d marks the D form. Ends that are not written are not given here. Peptide text beside a SMILES is read from it. Phe(4-NH2) = Nc1ccc(C[C@H](N)C(=O)O)cc1; Suc = O=C(CCC(=O)[*:2])[*:1]

What was measured:
[1] = tested on: purified rat peritoneal mast cells; assay: Histamine secretion from intact mast cells incubated with peptide alone (secretagogue side effect); settings: for Secretagogue (histamine secretion following incubation of mast cell with different concentrations of each peptide): no allergen; for histamine secretion from mast cells on incubation with increasing concentrations of peptide alone: no additional allergen
Protocol: (§1) Mast cells from the peritoneal cavity of C.R rats were isolated in Tyrode buffer (137 mM NaCl, 2.7 mM KC1, 1 mM MgCl2, 0.4 mM NaH2PO4, 20 mM Hepes, 1.0 mM CaCl2, 5.6 mM glucose, 1 mg/ml BSA, pH 7.2) and purified over a Ficoll gradient. A suspension of washed peritoneal cells was placed over a cushion of 30% Ficoll 400 (Pharmacia Biotech.) in buffered Saline containing 0.1% BSA; and centrifuged at 150O×g for 15 min. The purity of mast cells recovered from the bottom of the tube was >90%, as assessed by toluidine blue staining.
(§2) Purified mast cells (duplicated of 10^5 cells/0.5 ml) were incubated in Tyrode buffer with buffer or with desired concentrations of the indicated peptide for 2 h. at. 37° C. Histamine secretion was subsequently stimulated by the indicated concentration of compound 48/80 (Sigma) dissolved in Tyrode buffer. Incubation with compound 48/80 was carried out for 20 mm.in at 37° C. The reaction was terminated by placing the tubes on ice. The cells were sedimented by centrifugation at 150×g for 5 mm.in and the supernatants were collected. The amount of histamine release was determined as previously described (Aridor et al., 1990). Briefly, cell pellets were lysed using 0.1N NaOH and the volume of each sample was adjusted to 0.5 ml by H2O. Histamine content was assayed using the o-phtalaldehyde (OPT) fluorimetric method (Shore et al., 1959). Aliquots of 0.4 ml from the supernatants and cell lysates were incubated with 1.6 ml H20, 0.4 ml 1N NaOH and 0.1 ml of 10 mg/l ml OPT in methanol, for 4 min at room temperature. The reaction was terminated by the addition of 0.2 ml 3N HCl. Samples were centrifuged at 150×g for 5 min. and 0.2 ml samples were transferred to a 96 well plate. The histamine spectrofluorometric assay was run in microplates using a microplates reader (FL-600, Biotek instruments Winooski, Vt., USA). Samples were excited by light at 340 nm and read at 440 nm. Histamine release was calculated as the percentage of total histamine content (supernatant/pellet+supernatant) in each sample. Each data point represents the average of duplicate measurements. The spontaneously released histamine was subtracted.

[2] = tested on: abdominal skin of C.R rats; assay: Rat skin test: intradermal injection of peptide, then intradermal compound 48/80 or vehicle, wheal area; assay type: in vivo; settings: for Mean Wheal Area ± STD, Vehicle: vehicle instead of compound 48/80
How it was run: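 Peptide was injected intradermally (20 μl, in 10% DMSO/saline) at 20 or 200 μg; after 0.5 or 1 h, 20 μl compound 48/80 (0.1 mg/ml) or vehicle was injected intradermally at the same site. Wheal outlines were traced and areas measured by planimeter, reported as mean wheal area.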

[3] = Peptide solubility (remarks; assay medium, Tyrode buffer); assay type: physicochemical
[4] = tested on: purified rat peritoneal mast cells; assay type: cell-based; settings: for Inhibitor (degree of inhibition of histamine secretion from mast cells): Table 1, incubation with different concentrations of each peptide, then induction of the allergic reaction
How it was run: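 Intact purified rat peritoneal mast cells were incubated at 37° C with increasing peptide concentrations, then stimulated with 5 μg/ml compound 48/80 (maximal release). Histamine secretion is expressed as % of total cellular histamine after subtracting spontaneous release, as the mean of duplicates.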

[5] = tested on: rat peritoneal mast cells; assay: Inhibition of IgE dependent (DNP-specific IgE / DNP-BSA) histamine secretion; assay type: cell-based
Protocol: Peptides 2 and 2-Suc were also tested in vitro for their ability to block histamine secretion from rat peritoneal mast cells, in response to the IgE-dependent mechanism. The IgE dependent pathway is activated in response to an immunological trigger, brought about by aggregation of the high affinity receptors (FeεRI) for IgE, which are present on the cell surface of mast cells. This response involves crosslinking of cell bound IgE antibodies by the corresponding antigens (allergens).
Isolated, purified mast cells were sensitized in the presence of a monoclonal DNP-specific IgE antibody (1 μg/10^6 cells) for 1 hour at 37° C. The cells were washed 3 times and incubated for 2 hours with different concentrations of each peptide, followed by triggering with the antigen DNP-BSA (100 ng/ml) in the presence of Brain Extract (0.1 mg/ml), for 20 min. at 37° C. Placing the tubes in ice terminated the reaction. The amount of histamine released from the cells was monitored.

[6] = tested on: purified rat peritoneal mast cells
Protocol: as §1, §2

[7] = intradermal peptide 1 mg/ml, 0.5 hour before allergic induction
[8] = intradermal peptide 1 mg/ml, 0.5 hour before
[9] = intradermal peptide 1 mg/ml, 1 hour before allergic induction
[10] = intradermal peptide 1 mg/ml, 1 hour before
[11] = intradermal peptide 10 mg/ml, 0.5 hour before allergic induction
[12] = intradermal peptide 10 mg/ml, 0.5 hour before
[13] = intradermal peptide 10 mg/ml, 1 hour before allergic induction
[14] = intradermal peptide 10 mg/ml, 1 hour before
[15] = intradermal peptide 0.5 hour before allergic induction
[16] = intradermal peptide, lower dose or 1 hour before allergic induction

Mean Wheal Area ± STD, Vehicle [2, 8] | Mean Wheal Area ± STD, Vehicle [2, 10] | Mean Wheal Area ± STD, Vehicle [2, 12] | Mean Wheal Area ± STD, Vehicle [2, 14] | solubility [3] | Molecule | block of compound 48/80 induced allergic reaction in vivo, rat skin ([2]; intradermal peptide) | Mean Wheal Area ± STD, Compound 48/80 [2, 7] | Mean Wheal Area ± STD, Compound 48/80 [2, 9] | Mean Wheal Area ± STD, Compound 48/80 [2, 11] | Mean Wheal Area ± STD, Compound 48/80 [2, 13] | reduction of compound 48/80 induced allergic reaction [2, 15] | reduction of compound 48/80 induced allergic reaction [2, 16] | Inhibitor (degree of inhibition of histamine secretion from mast cells) [4] | histamine secretion from mast cells on incubation with increasing concentrations of peptide alone [1] | Secretagogue (histamine secretion following incubation of mast cell with different concentrations of each peptide) ([1]; Table 9, peptide alone) | other results
61.4 ± 30.9 (n = 5) mm^2 | 54.6 ± 12.1 (n = 6) mm^2 | 58.8 ± 29.6 (n = 5) mm^2 | 45.0 ± 7.9 (n = 6) mm^2 | very poor solubility | CC(C)C[C@@H]1NC(=O)CNC(=O)[C@H](CS)NC(=O)[C@H](CCC(=O)O)NC(=O)[C@H](CCCCN)NC(=O)[C@H](CC(C)C)NC(=O)[C@H](CC(N)=O)NC(=O)[C@H](CC(N)=O)NC(=O)[C@@H](NC(=O)[C@@H]2CCCN2C(=O)[C@H](C)NC(=O)[C@H](CC(C)C)NC(=O)[C@H](CC(C)C)NC(=O)[C@H](C)NC(=O)[C@H](CC(C)C)NC(=O)[C@H](CC(C)C)NC(=O)[C@@H](NC(=O)[C@H](C)NC(=O)[C@@H]2CCCN2C(=O)[C@H](CC(C)C)NC(=O)[C@H](CC(C)C)NC(=O)[C@H](C)NC(=O)[C@@H](NC(=O)[C@H](C)NC(=O)[C@H](C)N)C(C)C)C(C)C)CCCCNC(=O)[C@H](Cc2ccc(O)cc2)NC1=O [Peptide 2-Cyc] (H-AAVALLPAVLLALLAPKNNLKECGLY; lactam 17-C; N-terminus assumed) | less effective than peptide 2 | 104.4 ± 45.8 (n = 5) mm^2 | 84.5 ± 29.7 (n = 6) mm^2 | 82.6 ± 50.6 (n = 5) mm^2 | 75.3 ± 28.4. (n = 6) mm^2 | significant decrease in wheal area | had no effect | + (+ Poor inhibitor (<50% inhibition)) |  |  | side effects of histamine secretion in mast cells, peptide alone ([1]; at a concentration of 100 μg/ml): only minor side effects of histamine secretion; effect on compound 48/80 induced histamine secretion ([4]; range of peptide concentrations tested): only limited potential to block compound 48/80 induced histamine secretion
 |  |  |  | severe solubility problems | CC(C)C[C@H](NC(=O)CNC(=O)[C@H](CS)NC(=O)[C@H](CCC(=O)O)NC(=O)[C@H](CCCCN)NC(=O)[C@H](CC(C)C)NC(=O)[C@H](CC(N)=O)NC(=O)[C@H](CC(N)=O)NC(=O)[C@H](CCCCN)NC(=O)[C@@H]1CCCN1C(=O)[C@H](C)NC(=O)[C@H](CC(C)C)NC(=O)[C@H](CC(C)C)NC(=O)[C@H](C)NC(=O)[C@H](CC(C)C)NC(=O)[C@H](CC(C)C)NC(=O)[C@@H](NC(=O)[C@H](C)NC(=O)[C@@H]1CCCN1C(=O)[C@H](CC(C)C)NC(=O)[C@H](CC(C)C)NC(=O)[C@H](C)NC(=O)[C@@H](NC(=O)[C@H](C)NC(=O)[C@H](C)N)C(C)C)C(C)C)C(=O)N[C@@H](Cc1ccc(N)cc1)C(=O)O [WALL005] (H-AAVALLPAVLLALLAPKNNLKECGL[Phe(4-NH2)]-OH; N-terminus and C-terminus assumed) |  |  |  |  |  |  |  |  | resulted in histamine secretion | + | 
 |  |  |  | no solubility problems | VTVLALGALAGVGVGKNNLKECGLY [Peptide 1] |  |  |  |  |  |  |  |  | resulted in histamine secretion | + | stimulatory effect on histamine secretion ([1]; peptide alone, concentration range of up to 400 p.g/ml (FIG. 1A)): hardly any stimulatory effect
 |  |  |  |  | VTVLALGALAGVGVGPKNNLKECGLY [WALL010] |  |  |  |  |  |  |  |  |  |  | Secretagogue (histamine secretion following incubation of mast cell with different concentrations of each peptide) [6]: +; histamine secretion from mast cells on incubation with increasing concentrations of peptide alone [6]: resulted in histamine secretion; maximal inhibition of compound 48/80 induced histamine release ([4]; 200 μg/ml peptide): 16.7%

Molecule | Mean Wheal Area ± STD, Vehicle [2, 8] | Mean Wheal Area ± STD, Vehicle [2, 10] | Mean Wheal Area ± STD, Vehicle [2, 12] | Mean Wheal Area ± STD, Vehicle [2, 14] | solubility [3] | block of compound 48/80 induced allergic reaction in vivo, rat skin ([2]; intradermal peptide) | Mean Wheal Area ± STD, Compound 48/80 [2, 7] | Mean Wheal Area ± STD, Compound 48/80 [2, 9] | Mean Wheal Area ± STD, Compound 48/80 [2, 11] | Mean Wheal Area ± STD, Compound 48/80 [2, 13] | reduction of compound 48/80 induced allergic reaction [2, 15] | reduction of compound 48/80 induced allergic reaction [2, 16] | Inhibitor (degree of inhibition of histamine secretion from mast cells) [4] | histamine secretion from mast cells on incubation with increasing concentrations of peptide alone [1] | Secretagogue (histamine secretion following incubation of mast cell with different concentrations of each peptide) ([1]; Table 9, peptide alone) | other results
CC(C)C[C@H](NC(=O)CNC(=O)[C@H](CS)NC(=O)[C@H](CCC(=O)O)NC(=O)[C@H](CCCCN)NC(=O)[C@H](CC(C)C)NC(=O)[C@H](CC(N)=O)NC(=O)[C@H](CC(N)=O)NC(=O)[C@H](CCCCN)NC(=O)[C@@H]1CCCN1C(=O)[C@H](C)NC(=O)[C@H](CC(C)C)NC(=O)[C@H](CC(C)C)NC(=O)[C@H](C)NC(=O)[C@H](CC(C)C)NC(=O)[C@H](CC(C)C)NC(=O)[C@@H](NC(=O)[C@H](C)NC(=O)[C@@H]1CCCN1C(=O)[C@H](CC(C)C)NC(=O)[C@H](CC(C)C)NC(=O)[C@H](C)NC(=O)[C@@H](NC(=O)[C@H](C)NC(=O)[C@H](C)NC(=O)CCC(=O)O)C(C)C)C(C)C)C(=O)N[C@@H](Cc1ccc(O)cc1)C(=O)O [Peptide 2-Suc] (Suc-AAVALLPAVLLALLAPKNNLKECGLY-OH; C-terminus assumed) | 56.8 ± 24.1 (n = 11) mm^2 | 57.7 ± 23.2 (n = 12) mm^2 | 57.2 ± 21.7 (n = 10) mm^2 | 54.3 ± 25.8 (n = 12) mm^2 | more soluble in the assay medium, as compared to peptide 2 | less effective than peptide 2 | 93.4 ± 32.0 (n = 11) mm^2 | 89.3 ± 30.1 (n = 12) mm^2 | 73.8 ± 28.7 (n = 10) mm^2 | 78.1 ± 28.3 (n = 12) mm^2 | significantly reduced the wheal | had no effect | +++ (+++ Potent inhibitor (>85% inhibition)) | did not induce histamine secretion; also recorded: no stimulatory effect |  | Secretagogue (histamine secretion following incubation of mast cell with different concentrations of each peptide) ([1]; Table 1, peptide alone): −; inhibition of IgE induced histamine secretion ([5]; 600 μg/ml peptide, DNP-BSA 100 ng/ml): 90%; block of histamine secretion activated by an immunological trigger ([5]; DNP-specific IgE, DNP-BSA): effectively block histamine secretion; IC50, compound 48/80 induced histamine secretion [4]: 200 µg/mL (≈ 72 µM); maximal inhibition of compound 48/80 induced histamine secretion ([4]; 600 μg/ml peptide, compound 48/80 concentration not given): 80%
